Legend:
[1] = tested on: P.A.F.-induced aggregation of blood platelets; experiment: anti-P.A.F. action in vitro (P.A.F.-induced platelet aggregation); format: cell-based; conditions: Oryctolagus cuniculus, 10^-5 mole/liter, read-out: Anti-P.A.F. activity in vitro, % inhibition of the P.A.F.-induced aggregation of blood platelets from rabbit blood
From the text: 3. Determination of the anti-P.A.F. action in vitro.
P.A.F. (=Platelet Activating Factor=Platelet Aggregation Factor) is a phospholipid mediator which has a multiplicity of actions. The activation of blood platelet aggregation results in the induction of long-lasting bronchoconstrictions and hyperreactivity of the respiratory passages.
In this test, the effect of the test substances on platelet aggregation induced by addition of P.A.F. in a platelet suspension obtained from rabbit blood was investigated according to the method described by Mikashima et al. (Jap. J. Pharmacol. 44 (1987) 387-391).
A suspension of platelets obtained from rabbit blood was used which contains 4×10^9 platelets/ml in a modified Tyrode buffer solution (=Tyrode solution with the addition of 1.3 mM/l of CaCl2 and 2.5 g/l of gelatine) adjusted to pH 7.4. Tyrode solution is an aqueous solution containing, per liter, 136.9 mmole of NaCl, 2.68 mmole of KCl, 2.31 mmole of CaCl2, 1.0 mmole of MgCl2, 11.9 mmole of NaHCO3, 1.45 mmole of NaH2 PO4 and 5.55 mmole of glucose. The platelets were concentrated from 10 ml blood samples of three rabbits (New Zealand hybrids, body weight 3-4 kg) in each case. To accomplish this, the blood samples were treated with ethylenediaminetetraacetic acid and washed according to the method of Artley et al. (Brit. J. Haematol. 19 (1970), 7-17). A platelet-rich plasma was first separated by centrifugation (20 minutes at 400×g). The platelets were separated from the plasma by repeated centrifugation for 15 minutes at 1400×g.After the centrifugation, the blood platelets remaining in the sediment were resuspended in a Tyrode buffer solution (but without calcium). 0.4 mmole of lysine acetylsalicylate was then added, and the blood platelets were sedimented again after 15 minutes. The sediment was resuspended in the aforementioned modified Tyrode buffer solution, and the number of platelets in the suspension obtained was adjusted to the desired content.
A 40×10^-9 molar P.A.F. solution was employed as a reagent. This solution was prepared from a 1.8×10^-3 molar stock solution in chloroform. To do this, a 10 μl sample of the stock solution was evaporated to dryness and dissolved again in 180 μl of the modified Tyrode buffer solution, to which 0.25% of lipid-free bovine serum albumin had been added. 10^-5 molar working solutions were then prepared from this and stored frozen. Samples of these solutions were appropriately diluted for tests.
In order to carry out the test, 50 μl of the blood platelet suspension and 10 μl of a 40×10^-5 molar solution of the compound to be investigated were added to […] of the modified Tyrode buffer solution with stirring (1000 rpm) in an aggregation tube provided with a small magnetic stirrer. This corresponded to a final test substance concentration of 10^-5 mole/l. After a preincubation time of 90 seconds, 10 μl of the P.A.F. preparation were added. For 4-5 minutes, the aggregation occurring in the aggregation tube was measured by means of a computerized aggregometer.
The aggregation occurring in the test tubes containing only the platelet suspension is rated as 0%. The aggregation occurring in the test tubes containing platelet suspension and P.A.F. preparation, in which a P.A.F.-induced increase in platelet aggregation takes place, is rated as 100%. The aggregation still occurring after addition of the test substances is measured, and from this the inhibition of the P.A.F.-inducedincrease in aggregation which takes place is calculated in %.

5-lipoxygenase = experiment: inhibition of 5-lipoxygenase activity in polymorphonuclear rat leucocytes (LTB4 formation); format: cell-based; conditions: 10^-5 mol/l; 22° C.
From the text: 4. In vitro determination of 5-lipoxygenase inhibition. 4a. In vitro determination of inhibition of 5-lipoxygenase activity in polymorphonuclear rat leucocytes. Arachidonic acid contained in cell membranes is released after activiation of the polymorphonuclear leucocytes (=PMN). During the course of this, under the action of the enzyme 5-lipoxygenase (=5-LO) arachidonic acid metabolites are synthesized which can be converted to leucotriene B4 (=LTB4) by LTA4 hydrolase. LTB4 is a principal metabolite of the arachidonic acid metabolism taking place on activation of the enzyme 5-LO by the inflammatory stimulus in the cell membrane. In in vitro systems, this metabolite is secreted from PMNs. […] To accomplish this, the content of LTB4 in a culture medium of rat peritoneal PMNs was determined after stimulation by calcimycin (=calcium-ionophore A23187) such as described by […] et al., Can. J. Physiol. Pharmacol. 67 (1989), 17. A cell suspension containing peritoneal PMNs of male Sprague-Dawley rats (body weight 200 to 250 g) was obtained in a known manner as follows: 6 ml of a solution containing 27.9 g/l of sodium thioglycolate were injected i.p. into the animals in order to induce the PMN invasion due to this inflammatory stimulus. After 22 hours, the animals were sacrificed by means of lethal ether anaesthesia. 20 ml of a Hank's salt solution (=Hank's Balanced Salt Solution=HBSS), but without Ca^++ and Mg^++ ions and with 0.2% by weight of sodium citrate, were then injected into the abdominal cavity. The suspension of accumulated cells was removed from the abdominal cavity and the cells were separated by centrifugation (10 minutes at 400×g). The cells were purified by repeated centrifugation in the presence of Ficoll-Paque®, (=metrizoic acid preparation, […], manufacturer Pharmacia), then washed twice with HBSS containing Ca^++ and Mg^++ ions and resuspended in HBSS containing Ca^ ++ and Mg^++ ions and buffered with 10 mM HEPES (=hydroxyethylpiperazinoethanesulfonic acid). In order to carry out the tests, samples of 0.7 ml of the PMN suspension (=0.5×10^6 cells) in each case were incubated for 15 minutes at 22° C. in plastic tubes containing 10 μM of the test substance in dimethylformamide or, as a control experiment, only containing dimethylformamide. The LTB4 synthesis was initiated in the samples by addition of calcimycin (final concentration 5 μm), and the samples were incubated for 10 minutes at 22° C. Only solvent was added to blank control samples. After 10 minutes, the reaction was terminated by addition of 0.3 ml of cold methanol. The samples were kept for 1 hour at 4° C. and then centrifuged (5 minutes at 10,000×g). The supernatant liquid was investigated to determine its LTB4 content by means of reverse phase high-pressure liquid chromatography (=reverse phase HPLC). […] The LTB4 was identified by comparison with authentic standard solutions eluting at the same time and determined at a wavelength of 270 nm. The LTB4 contents are determined from comparison with calibrated standard solutions, and from this the inhibitory activity of the test substances was calculated in % inhibition of the LTB4 synthesis in comparison with the control samples containing no test substance.

Row | SMILES | inhibition at 10 µM [1] [%] | In vitro inhibitory activity on LTB4 formation in rat PMNs stimulated by calcium ionophore A23187 (5-lipoxygenase) [%]
1 | COc1ccc(-c2c(C)c3cccc4c3n2CC(CCN2CCN(c3cc(C)ccn3)CC2)O4)cc1 (stereo not drawn) [Example 1, 2,3-dihydro-5-(4-methoxyphenyl)-6-methyl-2-[2-(4-(4-methylpyridin-2-yl)piperazin-1-yl)ethyl]pyrrolo[1,2,3-de]-1,4-benzoxazine] | 80 | 
2 | Cc1ccnc(N2CCN(CCC3Cn4c(-c5ccc(O)cc5)c(C)c5cccc(c54)O3)CC2)c1 (stereo not drawn) [Example 2, 2,3-Dihydro-5-(4-hydroxyphenyl)-6-methyl-2-[2-(4-(4-methylpyridin-2-yl)piperazin-1-yl)ethyl]pyrrolo[1,2,3-de]-1,4-benzoxazine] | 97 | 89
3 | COc1ccc(-c2c(C)c3cccc4c3n2CC(CCC(=O)N2CCN(c3cc(C)ccn3)CC2)O4)cc1 (stereo not drawn) [Example 6, 2,3-Dihydro-5-(4-methoxyphenyl)-6-methyl-2-[3-(4-(4-methylpyridin-2-yl)piperazin-1-yl)-3-oxopropyl]pyrrolo[1,2,3-de]-1,4-benzoxazine] | 100 | 
4 | Cc1ccnc(N2CCN(CC3Cn4c(-c5ccc(O)cc5)c(C)c5cccc(c54)O3)CC2)c1 (stereo not drawn) [Example 14] | 100 | 90
5 | Cc1c(-c2ccc(O)cc2)n2c3c(cccc13)OC(CCN1CCN(c3ccc(F)cc3)CC1)C2 (stereo not drawn) [Example 24] |  | 73
6 | Cc1cccnc1N1CCN(C(=O)CCC2Cn3c(-c4ccc(O)cc4)c(C)c4cccc(c43)O2)CC1 (stereo not drawn) [Example 37] | 48 | 100
7 | Cc1ccnc(N2CCN(CCC3Cn4c(-c5cc(C)c(O)c(C)c5)c(C)c5c(Cl)ccc(c54)O3)CC2)c1 (stereo not drawn) [Example 48] | 69 | 
8 | COc1ccc(-c2c(C)c3c(F)ccc4c3n2CC(CCN2CCN(c3cc(C)ccn3)CC2)O4)cc1 (stereo not drawn) [Example 51] | 65 | 
9 | COc1ccc(-c2c(C)c3cccc4c3n2CC(CCN2CCN(c3cc(C)ccn3)CC2)O4)cc1O (stereo not drawn) [Example 52] |  | 53
10 | Cc1ccc(N2CCN(CCCC3Cn4c(-c5ccc(O)cc5)c(C)c5cccc(c54)O3)CC2)nc1 (stereo not drawn) [Example 55] |  | 63
11 | Cc1c(-c2ccc(O)cc2)n2c3c(cccc13)OC(CCCN1CCN(c3ccccn3)CC1)C2 (stereo not drawn) [Example 56] |  | 76
12 | Cc1cccc(N2CCN(C(=O)CCC3Cn4c(-c5ccc(O)cc5)c(C)c5cccc(c54)O3)CC2)n1 (stereo not drawn) [Example 57] |  | 85
13 | Cc1cccc(N2CCN(CCCC3Cn4c(-c5ccc(O)cc5)c(C)c5cccc(c54)O3)CC2)n1 (stereo not drawn) [Example 58] |  | 54
14 | Cc1ccnc(N2CCN(CCCCC3Cn4c(-c5cc(C)c(O)c(C)c5)c(C)c5cccc(c54)S3)CC2)c1 (stereo not drawn) [Example 63] | 80 | 
15 | COc1ccc2c3c1c(C)c(-c1ccc(O)cc1)n3CC(CCC(=O)N1CCN(c3cc(C)ccn3)CC1)O2 (stereo not drawn) [Example 68] | 96 | 90
16 | Cc1ccnc(N2CCN(CCC3Cn4c(-c5ccc(O)cc5)c(C)c5c(C)cc(C)c(c54)O3)CC2)c1 (stereo not drawn) [Example 70] | 93 | 68

— patent US5474988A, “5-phenylpyrrolo-1,4-benzoxazine and 5-phenylpyrrolo-1,4-benzothiazine compounds, process and intermediates for their production and pharmaceutical compositions containing them” (Kali-Chemie Pharma GmbH, priority 1993, dated 1995)
